These results are taken from patent US11046647B2, “Activators of the unfolded protein response” (The Board of Trustees of the University of Illinois, priority 2018, dated 2021).

The subject of one series is T47D, TYS and TDG cells. Put plainly: MTS proliferation assay (4 days), T47D, TYS and TDG. The series is classed as cell-based, human. As for the experimental part: FIG. 30 compares the ability of BHPI and test compounds to inhibit proliferation of T47D, TYS and TDG cells. T47D cells were in medium containing 10 FBS (which contains estrogen), TYS-4 and TDG-1 cells were in medium containing 10% cd-FBS (estrogen depleted). Cells are plated at 2,000 cells/well in 96 well plates. After 24 hours in medium containing FBS or charcoal-dextran treated FBS (depleted of endogenous estrogens), the indicated concentration of each compound (in DMSO at 1/1000th of the volume of medium) was added. After 2 days the medium was changed, and the compounds were added again. After 2 additional days (4 days total) MTS assays are used to evaluate cell proliferation. (n=6 ±S.E.M.).
A general note: Tetrazolium dyes change colour on reduction, which living cells bring about.

The next series has as its system TDG cells. Put plainly: Trypan Blue exclusion cell death assay, TDG / TDG-Luc. The series is classed as cell-based, human. The following applies: 24 hours. From the text:
(§1) TRYPAN BLUE: For decades, viable cells have been measured by their ability to exclude the dye Trypan Blue. […] Dead cells, which have lost membrane integrity, take up the dye and are blue. Thus, the percentage of dead cells is the percentage of cells that are Trypan Blue positive out of the total cell population. Quantitative assessment of Trypan Blue uptake uses a cell counter from Fisher. Since the assay is instrument based, there is no observer bias in determining the percentage of Trypan Blue positive cells.
(§2) TRYPAN BLUE ASSAYS: Assays are performed on cells in 6 well plates: 300,000 cells are plated in each well of a 6-well plate in 3 ml of medium. After 24 hours, the DMSO vehicle or the indicated compound is added (in 1000th of the vol.) The cells incubated for an additional 24 hours, and then harvested in 0.25 ml of trypsin, followed after harvest by 0.75 ml of medium. The cells are spun down and resuspended in 100-200 μl of medium left that is over the cell pellet (resuspend cells by pipetting up and down a few times). Add 10 μl to 10 μl of trypan blue. Then 10 μl is inserted into the counting slide. After inserting the slide into the Fisher TC20 counting is automatic (these many cells are needed because an accurate ratio of Trypan Blue positive to Trypan Blue negative cells requires about 200 cells in the field the instrument counts).
The Trypan Blue cell death assay was used to evaluate the ability of the active enantiomer of C-105 [(−)-105] to kill ERα positive TDG-Luc cells. For all studies, 300,000 TDG-Luc cells/well in 10% FBS were plated in a 6-well plate in triplicate. 24 hours after plating, the indicated concentrations the active enantiomer of (−)-105, or BHPI (top) ICI, or OHT (Lower left) or (+)-105 (lower right) were added. After 24 hours, the cells were harvested, and the % dead cells was determined by automated Trypan Blue exclusion using the Countess II automated hemocytometer. Percentage of viable cells was calculated by doing 100-(Cell Death %). (n=3±SEM).
TDG cells were incubated for 24 hours with 75 nM of BHPI or 75 nM of each of the indicated test compounds: 4, 6 and (±)-105 (enantiomers not separated). Cell death was determined using the instrument-based Trypan Blue exclusion assay. Structures are in the Synthesis section. […] (n=3±SEM).

The test system of another series is TYS cells. As to the kind of experiment: Trypan Blue exclusion cell death assay, TYS / TYS-Luc. The format is cell-based, human. The following applies: 24 hours.
From the text: as §1, §2
The Trypan Blue cell death assay was used to evaluate the ability of the active enantiomer of 105 (−) [(−)-105] to kill ERα positive MCF-7 and TYS-Luc, human breast cancer cells. 300,000 T47D cells/well in 10% FBS were plated in a 6-well plate in triplicate. 24 hours after plating, the indicated concentrations of BHPI, or the active enantiomer 105 (−) of C-105 [(−)-105] was added. After 24 hours, the cells were harvested, and the % dead cells was determined by automated Trypan Blue exclusion using the Countess II automated hemocytometer. Percentage of viable cells was calculated by doing 100-(Cell Death %). (n=3±SEM).
TYS cells were incubated for 24 hours with 35 nM of BHPI or 35 nM of each of the indicated test compounds: 2, 4, and 105. Cell death was determined using the instrument-based Trypan Blue exclusion assay.
TYS cells were incubated for 24 hours with 50 nM of BHPI or 50 nM of each of the indicated test compounds: 4, 6 and 105. Cell death was determined using the instrument-based Trypan Blue exclusion assay. (n=3±SEM).

Series [1] deals with T47D cells. As to the kind of experiment: Trypan Blue exclusion cell death assay, T47D / T47D-Luc. The format is cell-based, human. The following applies: 75 nM, 24 hours.
From the text: as §1
as §2, with “After inserting the slide into the Fisher TC20 counting is automatic (these many cells are needed because an accurate ratio of Trypan Blue positive to Trypan Blue negative cells requires about 200 cells in the field the instrument counts).” left out
The Trypan Blue cell death assay was used to compare the ability of the active (−) enantiomer of C-105 and BHPI to kill estrogen receptor α (ERα) positive T47D, human breast cancer cells expressing luciferase (T47D-Luc cells). […] After 24 hours, the cells were harvested, and the % dead cells was determined by automated Trypan Blue exclusion using the Countess II automated hemocytometer. Percentage of viable cells was calculated by doing 100-(Cell Death %). […]
T47D cells were incubated for 24 hours with 75 nM of BHPI or 75 nM of each of the indicated test compounds: 4 and 6. Cell death was determined using the instrument-based Trypan Blue exclusion assay. […]
T47D cells were treated for 24 hours with 100 nM BHPI, or with 100 nM of each of the test compounds: 6, 8, and 105. […] Cell death was determined using the instrument-based Trypan Blue exclusion assay. […]

Series [2] deals with ERα Negative MCF-10A cells. Put plainly: Trypan Blue exclusion cell death assay, MCF-10A. The following applies: 75 nM, 24 hours. The series is classed as cell-based.
From the text: as §1, §2
In FIG. 28, neither the test compounds nor BHPI kill non-tumorigenic ERα Negative MCF-10A breast cells. ERα Negative MCF-10A cells were maintained for 24 hours in DMSO vehicle or 75 nM of BHPI or 75 nM of each of the indicated test compounds: 4, 6 and 105. Cell death was determined using the instrument-based Trypan Blue exclusion assay. (n=3±SEM).

Series [3] has as its system T47D cells. The following applies: 24 hours; up to 1,000 nM; FACS annexin V-FITC/PI. As for the experimental part: One such change is loss of plasma membrane polarity. This is monitored using Annexin V. Dying cells also take up the dye propidium iodide. Propidium iodide (PI) fluoresces when it is intercalated into DNA. These assays monitor cells at specific stages of cell death.
FLOW CYTOMETRY (FITC) ASSAYS: Cells were seeded in 12-well plates, 75,000 cells/well, and allowed to adhere overnight. The next day, the indicated concentrations of raptinal (positive control), (−)-105, (±)-105, and (+)-105 were added and allowed to incubate at 37° C. for 24 hours (Final Volume: 1 ml, 0.1% DMSO). After incubation, cells were harvested and resuspended in 350 μl of cold Annexin binding buffer (10 mM HEPES, 140 mM NaCl, 2.5 mM CaCl2, pH 7.4) premixed with Annexin V-FITC and PI dyes. Samples were analyzed on a BD Biosciences LSRII flow cytometer, and data analysis was performed using FSC Express Version 5-6. Cell death was assessed relative to a DMSO treated control.
T47D, human breast cancer cells were plated at 75,000 cells/well. The next day, DMSO vehicle, 10 μM raptinal (control for 100% cell death), or 0, 50, 100 500 and 1,000 nM of BHPI or (±)-105, or 1,000 nM ICI/fulvestrant or 1,000 nM OHT was added. After 24 hours viable cells were determined by FACS using annexin V-FITC and propidium iodide dyes. (n=3 independent experiments ±SEM).
75,000 ERα positive T47D, human breast cancer cells, were plated/well. The next day, DMSO vehicle, 10 μM raptinal (control for 100% cell death), or 100 500 and 1,000 nM of (+)-105, or (−)-105 was added. After 24 hours viable cells were determined by FACS using annexin V-FITC and propidium iodide dyes. (n=1).

The next series deals with MCF-7 tumors. Put plainly: MCF-7 orthotopic tumor model. The series is classed as in vivo, mouse. The following applies: large established MCF-7 tumors; SERK-F6 10 or 40 mg/kg p.o. daily; fulv. 5 mg/mouse s.c. weekly. As for the experimental part: FIG. 39. SERK-F6 eradicates wild-type ERα tumors via hyperactivation of aUPR. a, MCF-7 orthotopic tumors were established in Nu/J ovariectomized mice supplemented with a 60 day E2 pellet (0.36 mg) and grown to ˜400 mm^3 (28 days to establish), randomized, then treated with vehicle daily (n=3), vehicle weekly (n=3), fulv. weekly (5 mg/mouse, s.c., n=6), SERK-F6 daily (10 or 40 mg/kg p.o.). Vehicle arms were averaged. p values: *: p≤0.05, **: p≤0.01, ***: p≤0.001, ****: p≤0.0001. Tumor images were taken at the end of the study (day 21) and are representative of all tumors (n=6). b-e, MCF-7 cells were orthotopically bi-laterally grafted and tumors were grown until total tumor burden was ˜400 mm^3 prior to daily treatment with vehicle or SERK-F6 (40 mg/kg p.o.). Mice (n=5 per arm) were sacrificed after 3 days (b,c) and 7 days (d,e) and tumors harvested. […] Vinculin (Vin) was used as a loading control. […] Error bars represent S.E.M.
To probe the efficacy of SERK-F6 for killing ERα positive tumors, large MCF-7 tumors were grown and then intervened with therapy. […] The mice were then sacrificed prior to complete tumor eradication.

Series [4] relates to TYS and TDG breast cancer cells. As to the kind of experiment: Killing of TYS and TDG breast cancer cells by endocrine therapy drugs. The format is cell-based, human.
A further series has as its system OVCAR-3 cells. The following applies: OVCAR-3 orthotopic xenograft.

For `COc1ccc(C2(c3ccc(O)cc3)C(=O)Nc3c(C)cccc32)cc1` (stereo not shown) [Compound 2, 3-(4-hydroxyphenyl)-3-(4-methoxyphenyl)-7-methylindolin-2-one], the “effectiveness in killing compared with BHPI” value in the series on T47D, TYS and TDG cells is reported as “more effective than BHPI”.
With `COc1ccc(C2(c3ccc(O)cc3)C(=O)Nc3c(C(F)(F)F)cccc32)cc1` (stereo not shown) [Compound 4, 3-(4-hydroxyphenyl)-3-(4-methoxyphenyl)-7-(trifluoromethyl)indolin-2-one], in the series with TDG cells (75 nM), the “ability to kill TDG cells compared to BHPI” value was “greatly increased ability to kill”. Also, the “ability to kill TYS cells compared to BHPI” value in the series on TYS cells (35 nM) is “greatly increased ability to kill”; with TYS cells (50 nM), “increased ability to kill”. The “ability to kill T47D cells compared to BHPI” value in the series on T47D cells [1] is “greatly increased ability to kill”. Further, in series [2], the “cell death of MCF-10A cells” value is reported as “neither BHPI nor any of the test compounds induce significant death”. In addition, the “effectiveness in killing compared with BHPI” value in the series on T47D, TYS and TDG cells is “more effective than BHPI”.
For `Cc1cccc2c1NC(=O)C2(c1ccc(O)cc1)c1ccc(OC(F)(F)F)cc1` (stereo not shown) [Compound 6, 3-(4-hydroxyphenyl)-7-methyl-3-(4-(trifluoromethoxy)phenyl)indolin-2-one], the “cell death of MCF-10A cells” value in series [2] is on record as “neither BHPI nor any of the test compounds induce significant death”. Also, the “effectiveness in killing compared with BHPI” value in the series with T47D, TYS and TDG cells is given as “more effective than BHPI”.
`CC/C(=C(\c1ccc(O)cc1)c1ccc(OCCN(C)C)cc1)c1ccccc1` [OHT, z-4-hydroxytamoxifen, reference compound]: in the series on T47D cells [3], the “cytotoxic versus cytostatic phenotype” value is recorded as “cytostatic”. Moreover, the “killing of TDG-Luc cells, dose response” value in the series on TDG cells is recorded as “do not kill”.
For `C[C@]12CC[C@@H]3c4ccc(O)cc4C[C@@H](CCCCCCCCC[S+]([O-])CCCC(F)(F)C(F)(F)F)[C@H]3[C@@H]1CC[C@@H]2O` (stereo partly shown) [fulvestrant, reference compound], in the series with TDG cells, the “killing of TDG-Luc cells, dose response” value was “do not kill”. Moreover, the tumor response entry in the series with MCF-7 tumors was “dramatic effects against these large and established tumors are not obtained”. The “ability to kill TYS and TDG cells” value in [4] was “no ability at all to kill”.
As to `CC(=O)O[C@H]1C(=O)[C@@]2(C)[C@H]([C@H](OC(=O)c3ccccc3)[C@]3(O)C[C@H](OC(=O)[C@H](O)[C@@H](NC(=O)c4ccccc4)c4ccccc4)C(C)=C1C3(C)C)[C@]1(OC(C)=O)CO[C@@H]1C[C@@H]2O` [paclitaxel], in the series with OVCAR-3 cells, the “tumor growth / detectability” value is recorded as “ineffective”.
Regarding `CC/C(=C(\c1ccccc1)c1ccc(OCCN(C)C)cc1)c1ccccc1` [tamoxifen], the “ability to kill TYS and TDG cells” value in [4] is on record as “no ability at all to kill”.
